{
  "source": "patent US20090176857A1",
  "about": "“Use of Organic Compounds” (priority 2005, published 2009)",
  "key": {"[1]": {"system": "women with IBS-C (Rome II criteria) and IBS-M (modification of Rome II)", "assay": "Randomized, double-blind, placebo-controlled, multicenter study, 4 weeks treatment, in patients with IBS-C and IBS-M", "assay_type": "in vivo", "conditions": "for days/week with no BMs (mean) / stool consistency score using a 7-patient scale (mean) / days/wk with straining (mean) / weekly BM frequency (mean): p<0.05", "experimental": "Evaluation of the effect of tegaserod (T) on multiple symptoms in women with mixed/alternating bowel habits.\nMETHODS: A randomized, double-blind, placebo-controlled, multicenter study was performed in patients with IBS-C (based on Rome II criteria) and IBS-M (modification of Rome II). The primary efficacy variable was the patients' assessment of satisfactory relief over 4 weeks treatment with T 6 mg bid or Placebo (P). The proportion of patients reporting satisfactory relief of 4 weeks (75% rule) and improvement during each of the 4 weeks in individual IBS symptoms were also assessed. Treatments were compared using a generalized linear model with logit link.\nRESULTS: 661 women were randomized (IBS-C 337; IBS-M 324). Baseline symptom assessment clearly distinguished between the IBS-C and the IBS-M cohorts. Statistically significant differences were found between the two cohorts in bowel movement (BM) frequency, stool consistency and straining. T provided statistically significant improvement in satisfactory relief of IBS symptoms over a 4-week treatment (odds ratio 1.75; 95% CI: 1.35, 2.25; p-value<0.001) for the IBS-C and IBS-M cohorts. […] Adverse event discontinuations were low (IBS-C: T 1.2% v P 2.4% and IBS-M: T 2.5% v P 3.6%). Most frequent AEs (with discontinuations) were diarrhea (1.1%), headache (0.6%) and nausea (0.3%). No clinically significant diarrhea or colitis of any type was reported."}, "[2]": {"system": "patients with constipation predominant and alternating forms of IBS", "conditions": "literature abstract; cited from earlier work"}},
  "data": [
    {"smiles": "[H]/N=C(/NCCCCC)N/N=C/c1c[nH]c2ccc(OC)cc12", "note": "[T, tegaserod]", "values": [
      {"measurement": "satisfactory relief of IBS symptoms over a 4-week treatment, odds ratio", "setting": "[1]; IBS-C and IBS-M cohorts, T 6 mg bid vs placebo, 95% CI: 1.35, 2.25, p<0.001", "value": 1.75},
      {"measurement": "percentage of patients experiencing satisfactory relief of IBS symptoms (75% rule)", "setting": "[1]; IBS-C cohort, T 6 mg bid, 4 weeks, placebo 28.9%, p=0.008", "value": 43.3, "unit": "%"},
      {"measurement": "days/week with no BMs (mean)", "setting": "[1]; IBS-C cohort, T 6 mg bid, placebo 2.18", "value": 2.31, "unit": "days/week"},
      {"measurement": "Adverse event discontinuations", "setting": "[1]; IBS-C cohort, T 6 mg bid, placebo 2.4%", "value": 1.2, "unit": "%"},
      {"measurement": "stool consistency score using a 7-patient scale (mean)", "setting": "[1]; IBS-C cohort, T 6 mg bid, placebo 2.89", "value": 3.53},
      {"measurement": "days/wk with straining (mean)", "setting": "[1]; IBS-C cohort, T 6 mg bid, placebo 3.55", "value": 3.08, "unit": "days/wk"},
      {"measurement": "weekly BM frequency (mean)", "setting": "[1]; IBS-C cohort, T 6 mg bid, placebo 6.06", "value": 6.88},
      {"measurement": "percentage of patients experiencing satisfactory relief of IBS symptoms (75% rule)", "setting": "[1]; IBS-M cohort, T 6 mg bid, 4 weeks, placebo 36.3%, p=0.010", "value": 52.3, "unit": "%"},
      {"measurement": "days/week with no BMs (mean)", "setting": "[1]; IBS-M cohort, T 6 mg bid, placebo 1.68", "value": 1.39, "unit": "days/week"},
      {"measurement": "days/wk with straining (mean)", "setting": "[1]; IBS-M cohort, T 6 mg bid, placebo 2.87", "value": 2.42, "unit": "days/wk"},
      {"measurement": "stool consistency score using a 7-patient scale (mean)", "setting": "[1]; IBS-M cohort, T 6 mg bid, placebo 3.49", "value": 3.95},
      {"measurement": "Adverse event discontinuations", "setting": "[1]; IBS-M cohort, T 6 mg bid, placebo 3.6%", "value": 2.5, "unit": "%"},
      {"measurement": "weekly BM frequency (mean)", "setting": "[1]; IBS-M cohort, T 6 mg bid, placebo 8.34", "value": 9.78},
      {"measurement": "treating the overall symptoms of IBS in patients with a mixed or alternating bowel habit (conclusion)", "setting": "[1]; IBS-M, T 6 mg bid, 4 weeks", "value": "effective and safe"},
      {"measurement": "Most frequent AEs (with discontinuations): diarrhea", "setting": "[1]; treatment group not stated", "value": 1.1, "unit": "%"},
      {"measurement": "Most frequent AEs (with discontinuations): headache", "setting": "[1]; treatment group not stated", "value": 0.6, "unit": "%"},
      {"measurement": "Most frequent AEs (with discontinuations): nausea", "setting": "[1]; treatment group not stated", "value": 0.3, "unit": "%"},
      {"measurement": "safety and tolerability profile", "setting": "[2]", "value": "favourable safety and tolerability profile"}
    ]}
  ]
}
